Structures are written as SMILES.

The target of this assay is T1, 1-deoxy-D-xylulose-5-phosphate synthase (Mycobacterium tuberculosis (strain ATCC 25618 / H37Rv), UniProt P9WNS3).
T1 sequence (P9WNS3 whole entry): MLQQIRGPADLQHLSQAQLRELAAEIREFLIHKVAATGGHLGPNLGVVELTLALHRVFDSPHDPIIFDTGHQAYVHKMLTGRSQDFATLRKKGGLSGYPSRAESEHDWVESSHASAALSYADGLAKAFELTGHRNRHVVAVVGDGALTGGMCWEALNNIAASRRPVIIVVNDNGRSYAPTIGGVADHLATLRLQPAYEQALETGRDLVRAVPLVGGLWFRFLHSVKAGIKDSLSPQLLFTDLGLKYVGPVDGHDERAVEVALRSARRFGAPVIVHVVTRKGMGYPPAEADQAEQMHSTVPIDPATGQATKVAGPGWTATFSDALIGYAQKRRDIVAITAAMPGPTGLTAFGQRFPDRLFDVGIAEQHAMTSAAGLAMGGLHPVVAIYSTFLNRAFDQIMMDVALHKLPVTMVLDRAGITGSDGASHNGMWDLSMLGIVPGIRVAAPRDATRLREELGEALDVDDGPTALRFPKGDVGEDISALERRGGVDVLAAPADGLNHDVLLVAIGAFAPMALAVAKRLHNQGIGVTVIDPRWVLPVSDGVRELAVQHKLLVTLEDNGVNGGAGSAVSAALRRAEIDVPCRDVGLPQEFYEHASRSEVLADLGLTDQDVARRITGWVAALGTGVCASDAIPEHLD
Briefly: Inhibition of Mycobacterium tuberculosis cloned 1-deoxy-D-xylulose-5-phosphate synthase expressed in Escherichia coli.
The molecule `Cc1nc2c(-c3ccc(Cl)cc3)c(C(F)(F)F)[nH]n2c(=O)c1Cc1ccccc1` gave an IC50 of over 200 µM. For `CCCc1c(-c2ccccc2)nc2c(-c3ccccc3)c(C)[nH]n2c1=O` [2-methyl-3,5-diphenyl-6-propylpyrazolo[1,5-a]pyrimidin-7(4H)-one], the IC50 was 17.9 µM. The figure for `Cc1cc(=O)n2[nH]c(C(F)(F)F)c(-c3ccc(Br)cc3)c2n1` [3-(4-bromophenyl)-5-methyl-2-(trifluoromethyl)pyrazolo[1,5-a]pyrimidin-7(4H)-one] is over 200 µM. The molecule `COCc1cc(O)n2nc(C)c(-c3ccc(Cl)cc3)c2n1` [3-(4-chlorophenyl)-5-(methoxymethyl)-2-methylpyrazolo[1,5-a]pyrimidin-7(4H)-one] displayed an IC50 of over 200 µM.

On to `COCc1cc(=O)n2[nH]cc(-c3ccc(Cl)cc3)c2n1` [3-(4-chlorophenyl)-5-(methoxymethyl)pyrazolo[1,5-a]pyrimidin-7(4H)-one], for which the IC50 was over 200 µM. `Cc1cc(=O)n2[nH]cc(-c3ccc(Cl)cc3)c2n1` [3-(4-chlorophenyl)-5-methylpyrazolo[1,5-a]pyrimidin-7(4H)-one] showed an IC50 of over 200 µM. For `O=c1cc(CCl)nc2c(-c3ccccc3)c[nH]n12` [5-(chloromethyl)-3-phenylpyrazolo[1,5-a]pyrimidin-7(4H)-one], the IC50 is over 200 µM.

What is called IC50 is the concentration that inhibits the measured activity by half. A high value points to lower potency.

The record behind these values is BindingDB's records for doi:10.1016/j.bmcl.2008.08.034 (University of Illinois At Chicago, 2008).
